We go through 1 compound from patent US20040028687A1, “Methods and compositions for the targeted delivery of therapeutic substances to specific cells and tissues” (priority 2002, published 2004).

Like-named read-outs stand apart in the source and are kept apart here.

For one data set, the system named is rNeu^+ tumor cells. The format is in vivo, mice. As for the experimental part: FIG. 6: Effect of virosome treatment on recently implanted tumors. 2×10^5 rNeu^+ tumor cells were injected s.c. and treatment was started 3-5 days later. I.v. injections of the different virosome formulations such as Doxo-Vir, Fab′-Doxo-Vir, Fab′-Vir and free Doxo (all at a concentration of 150 μg/ml doxorubicin) were performed at the indicated time points (arrows) for a period of three weeks. Tumor size was assessed twice a week during therapy and weekly in the follow-up period. Tumor formation (defined as volume >90 mm^3) in the different groups and the follow-up of >12 weeks is shown. Statistical analysis using Mann-Whitney rank test was performed. Control groups (◯), free Doxo (▾), Doxo-Vir (♦), Fab′-Vir (●), Fab′-Doxo-Vir (▪)
In another preferred embodiment of the invention, conjugated virosomes are used to arrest the metastatic spread of tumors. […] The effect of Fab′ conjugated virosomes on the growth of tumor metastases is assessed as follows. […] Tumor formation is assessed by palpation followed by measurement of tumor size as described in the previous example. […]
For the micrometastatic stage of tumor formation, 0.2×10^6 tumor cells are injected s.c. and treatment is started 3-5 days later. […] Tumor formation is assessed by palpation followed by measurement of tumor size as described in the previous example. […]

The conditions of data set [1]: cited from earlier work.
The subject of the next data set is rNeu^+ (NF 9006) tumors. Format: in vivo, mice. The note with it: established rNeu+ tumors, i.v. every 3-4 days; comparison between treatments.

Take `COc1cccc2c1C(=O)c1c(O)c3c(c(O)c1C2=O)C[C@@](O)(C(=O)CO)C[C@@H]3O[C@H]1C[C@H](N)[C@H](O)[C@H](C)O1` [free Doxo, doxorubicin]: the “median time to tumor formation” value in the data set with rNeu^+ tumor cells (2×10^5 rNeu+ cells s.c., treatment from day 3-5, 9 injections over 3 weeks, tumor formation >90 mm^3) is 20 days. The tumor development entry with rNeu^+ tumor cells (within 4 weeks after tumor cell inoculation, all mice of the group) is “developed tumors”. Further, the tolerated dose in data set [1] (SCID mice) is 2 to 3 mg/kg; in data set [1] (normal mice) it was 6 mg/kg. Further, the “tumor progression compared with another treatment group” value in the data set on rNeu^+ (NF 9006) tumors was “no significant difference in tumor progression”.
